Consider 6 molecules from patent publication US5238962A, “Benzamide derivatives” (Hoffmann-La Roche Inc., priority 1983, dated 1993).

Each structure is given as a SMILES string.

In one data set the target is T1, monoamine oxidase (MAO) (Rattus norvegicus, UniProt P19643).
T1 construct: from tissue; host or cells: rat brain and liver homogenates
T1 sequence (P19643 1-520): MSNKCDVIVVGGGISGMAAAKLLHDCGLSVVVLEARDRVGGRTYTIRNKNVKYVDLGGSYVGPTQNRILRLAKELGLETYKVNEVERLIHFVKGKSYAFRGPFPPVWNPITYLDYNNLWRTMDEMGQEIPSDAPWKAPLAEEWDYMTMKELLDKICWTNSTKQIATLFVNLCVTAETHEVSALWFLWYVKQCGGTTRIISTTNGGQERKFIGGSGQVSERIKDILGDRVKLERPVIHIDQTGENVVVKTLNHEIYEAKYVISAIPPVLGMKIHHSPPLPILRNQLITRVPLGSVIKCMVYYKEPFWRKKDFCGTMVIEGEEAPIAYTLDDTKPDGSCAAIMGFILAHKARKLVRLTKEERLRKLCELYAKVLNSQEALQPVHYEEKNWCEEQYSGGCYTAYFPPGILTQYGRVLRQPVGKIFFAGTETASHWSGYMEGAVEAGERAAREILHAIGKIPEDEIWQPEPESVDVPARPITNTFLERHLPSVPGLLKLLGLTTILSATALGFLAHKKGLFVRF
Briefly: MAO inhibiting activity in homogenates of brain and liver of rats after oral administration (phenethylamine as substrate). The data set is classed as in vivo. As to conditions: 2 h, p.o. in rats, killed two hours after administration, homogenates of the brain and the liver, phenethylamine 2.10^-5 mol.1^-1 as substrate. As to the method: The MAO inhibiting activity of the compounds of formula I and their pharmaceutically acceptable addition salts can be determined using standard methods. Thus, the substances to be tested were administered orally to rats. Two hours thereafter the animals were killed and the MAO inhibiting activity was measured in homogenates of the brain and the liver according to the method described in Biochem. Pharmacol. 12 (1963) 1439-1441, but using phenethylamine (2.10^-5 mol. 1^-1) in place of tyramine as the substrate.

Data set [1] is described as follows: toxicity (LD50, p.o. in mice). Conditions: mouse, in vivo, po.

In the case of `NCCNC(=O)c1ccccc1` [N-(2-Aminoethyl)benzamide], it took a dose of 20 µmol/kg to reach the 50% effect level at monoamine oxidase (MAO) (ED50). Besides, the LD50 in data set [1] was > 5000 mg/kg.
The corresponding values for `NCCNC(=O)c1ccc(Cl)c(Cl)c1` [N-(2-Aminoethyl)-3,4-dichlorobenzamide, N-(2-aminoethyl)-3,4-dichlorobenzamide] are 10.3 µmol/kg and 1000 to 2000 mg/kg.
The corresponding values for `NCCNC(=O)c1ccc(Br)cc1` [N-(2-Aminoethyl)-p-bromobenzamide] are 4 µmol/kg and 500 to 1000 mg/kg.
The corresponding values for `NCCNC(=O)c1ccc(Cl)cc1Cl` [N-(2-Aminoethyl)-2,4-dichlorobenzamide, N-(2-aminoethyl)-2,4-dichlorobenzamide] are 1.5 µmol/kg and 625 to 1250 mg/kg.
In data set [1], `NCCNC(=O)c1ccc(Cl)cc1` [N-(2-Aminoethyl)-p-chlorobenzamide] displayed a 50% lethal dose (LD50) of 1000 to 2000 mg/kg.
In the case of `NCCNC(=O)c1ccc(F)cc1` [N-(2-Aminoethyl)-p-fluorobenzamide], the ED50 at monoamine oxidase (MAO) was 4 µmol/kg. Moreover, the 50% lethal dose (LD50) in data set [1] is > 5000 mg/kg.
